This experiment concerns intestinal adenocarcinoma cells (lineage CACO-2). As to the kind of experiment: Proliferation inhibition in intestinal adenocarcinoma cells, lineage CACO-2. It is filed as cell-based. The conditions noted are these: cell lineage CACO-2. As for the experimental part: Further research has recently been carried out using retinoic acid, sodium butyrate and the invention substances obtained as in Example 1. More specifically, tests were conducted on intestinal adenocarcinoma cells (lineages CACO-2 and HT-29) using isomers of molecular weight 256 - hereinafter referred to simply as "esters 256" - and using the compound of molecular weight 330 corresponding to formula IV, and mixtures mainly containing said compound - hereinafter referred to simply as "HHP" (hydroxy-hydro-phenanthrene). The results were as follows: • 1. The proliferation-inhibiting effect of HHP and butyrate on cell lineage CACO-2 is 80% as compared with 60% for retinoic acid. Inhibition in cell lineage HT-29 treated with HHP of 50µM concentration was 95% by the seventh day. • 2. […] HHP induces in the cell lineages a 3.5 times increase in the number of domes, indicating greater cell differentiation. • 6. […] In CACO-2, alpha 2,6, xyalyl transferase increases 3 times with respect to the control after two weeks' treatment with HHP.

Each structure is given as a SMILES string.

`CCCC(=O)[O-].[Na+]` [butyrate, sodium butyrate, reference compound] gave a proliferation-inhibiting effect of 80%.
To `CC1=C(/C=C/C(C)=C/C=C/C(C)=C/C(=O)O)C(C)(C)CCC1` [retinoic acid, reference compound] belongs 60%.

For the origin of these results see EP1119538B1, “DERIVATIVES OF PHENANTRENE FOR MEDICINAL USE AND A PROCESS FOR THEIR PREPARATION” (Ammar, Khodor, priority 1998, dated 2000).
